Earlier results, collected in US11931686B1, “Carbon capture process utilizing inert gas medium to assist thermal desorption” (CARBON CAPTURE INC., priority 2022, dated 2024).

System: not given
Settings: Table 1

SMILES	Solubility in Water
Cc1ccccc1C [o-Xylene, o-xylene]	0.02 g/100 g
CCOC(=O)c1ccccc1 [Ethyl Benzoate, ethyl benzoate]	0.07 g/100 g
C[Si](C)(C)O[Si](C)(C)O[Si](C)(C)O[Si](C)(C)C [MD2M, decamethyltetrasiloxane]	insoluble

System: Rat
Settings: Rat; Table 1, inert chemical fluids

SMILES	LD50 (Rat)
Cc1ccccc1C [o-Xylene, o-xylene]	3,600 mg/kg

Same assay, conditions: Rat; Table 3, alcohols

SMILES	LD50 (Rat)
CC(C)CCO [i-Amyl Alcohol]	1,300 mg/kg

Same assay, conditions: Rat; Table 4, hydrocarbons

SMILES	LD50 (Rat)
c1ccc2c(c1)CCCC2 [Tetralin]	2,860 mg/kg
CCCCCCCC [Octane]	>5,000 mg/kg

Same assay, conditions: rat, in vivo

SMILES	LD50 (Rat)
CCC(C)O (centres unmarked) [2-Butanol]	2,193 mg/kg
CC(C)O [2-Propanol]	3,600 mg/kg
CCCCO [1-Butanol]	790 mg/kg
CO [Methanol]	5,628 mg/kg
CCCCCCCCCCC [Undecane, undecane]	2,000 mg/kg
CCOC(=O)c1ccccc1 [Ethyl Benzoate, ethyl benzoate]	2,100 mg/kg
CCC(CC)CO [2-Ethylbutanol]	1,850 mg/kg
Cc1cccc(C)c1 [m-Xylene, m-xylene]	5,000 mg/kg
C[Si](C)(C)O[Si](C)(C)O[Si](C)(C)O[Si](C)(C)C [MD2M, decamethyltetrasiloxane]	>2,000 mg/kg
CCCCCCC [Heptane]	>5,000 mg/kg
CCCCC(CC)CO (centres unmarked) [2-Ethylhexanol]	3,730 mg/kg
Clc1ccccc1 [Chlorobenzene]	>2,000 mg/kg
CC(C)CO [i-Butanol]	2,460 mg/kg
CCCO [1-Propanol]	1,870 mg/kg
Cc1ccc(C(C)C)cc1 [p-Cymene]	4,750 mg/kg
CCO [Ethanol]	7,340 mg/kg
